Measurements taken from patent US4450269A, “Mono-5-substituted-3-chloro-4H-1,2,6-thiadiazin-4-one antifungal agents” (FMC Corporation, priority 1980, dated 1984).
Where a name gives a salt, the structure may show the parent alone.

Assays:
Helminthosporium oryzae = experiment: Mycelial growth test; details: for inhibition at 5 ppm / inhibition at 10 ppm / inhibition at 20 ppm / inhibition at 40 ppm: Bipolaris oryzae, 72 h; for inhibition at 5 ppm: read-out: Percent Fungus Growth Inhibition, HO, 5 ppm, 72 hours; for inhibition at 10 ppm: read-out: Percent Fungus Growth Inhibition, HO, 10 ppm, 72 hours; for inhibition at 20 ppm: read-out: Percent Fungus Growth Inhibition, HO, 20 ppm, 72 hours; for inhibition at 40 ppm: read-out: Percent Fungus Growth Inhibition, HO, 40 ppm, 72 hours; for Percent Fungus Growth Inhibition: HO, 72 hours
Method: HO = Helminthosporium oryzae
Aliquots of previously prepared solutions of active ingredient in acetone were added to tubes containing 20 ml of sterile, melted potato dextrose agar that had been cooled to 50° C. to provide mixtures of 40, 20, 10, 5 and 2.5 ppm. The tubes were shaken to ensure thorough mixing of the chemical with the agar, and the mixture poured into petri dishes having 4 quadrants to solidify. Each quadrant was inoculated with a 4 mm diameter disc of agar containing mycelium of the test fungi and incubated at 25° C. for 72 hours during which the samples were alternately exposed to light for 12 hours and to darkness for 12 hours. Growth was measured at the end of the incubation period by measuring the diameter of each fungus colony. Two measurements of the diameter, perpendicular to each other, were taken and the values averaged. Data are reported as percent inhibition (%I) by the following formula: [formula] Captan and chlorothalonil were used as standards for comparison.

Cladosporium cucumerinum = experiment: Spore germination test; format: cell-based; details: CC, 48 hours
In short: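 Compound in acetone mixed into water agar at 40, 10, 2.5 and 1 ppm; plates seeded with spore suspension and incubated 48 hours at 24 °C. Percentage germinated spores counted and converted into a germination rating.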

Compound | inhibition at 5 ppm (Helminthosporium oryzae) | inhibition at 10 ppm (Helminthosporium oryzae) | inhibition at 20 ppm (Helminthosporium oryzae) | inhibition at 40 ppm (Helminthosporium oryzae) | Spore Germination Rating (Cladosporium cucumerinum; 1.0 ppm) | Spore Germination Rating (Cladosporium cucumerinum; 2.5 ppm) | Spore Germination Rating (Cladosporium cucumerinum; 10 ppm) | Spore Germination Rating (Cladosporium cucumerinum; 40 ppm) | Percent Fungus Growth Inhibition (Helminthosporium oryzae; 5 ppm) | Percent Fungus Growth Inhibition (Helminthosporium oryzae; 10 ppm) | Percent Fungus Growth Inhibition (Helminthosporium oryzae; 20 ppm) | Percent Fungus Growth Inhibition (Helminthosporium oryzae; 40 ppm) | Percent Fungus Growth Inhibition (Helminthosporium oryzae; 5 ppm, hydrochloride) | Percent Fungus Growth Inhibition (Helminthosporium oryzae; 10 ppm, hydrochloride) | Percent Fungus Growth Inhibition (Helminthosporium oryzae; 20 ppm, hydrochloride) | Percent Fungus Growth Inhibition (Helminthosporium oryzae; 40 ppm, hydrochloride)
O=c1c(Cl)nsnc1Oc1ccc([N+](=O)[O-])cc1 [Compound 9, 3-chloro-5-(4-nitrophenoxy)-4H--1,2,6-thiadiazin-4-one] | 50% | 82% | 86% | 100% | 0 (0-10) | 0 (0-10) | 0 (0-10) | 0 (0-10) | – | – | – | – | – | – | – | –
Cc1cc(Cl)ccc1Oc1nsnc(Cl)c1=O [Compound 55, 3-chloro-5-(4-chloro-2-methylphenoxy)-4H--1,2,6-thiadiazin-4-one] | 100% | 100% | 91% | 100% | 2 (40-60) | 1 (10-40) | 0 (0-10) | 0 (0-10) | – | – | – | – | – | – | – | –
O=c1c(Cl)nsnc1Oc1cccc2ccccc12 [Compound 32, 3-chloro-5(1-naphthoxy)-4H-1,2,6-thiadiazin-4-one] | 100% | 63% | 100% | 100% | 0 (0-10) | 0 (0-10) | 0 (0-10) | 0 (0-10) | – | – | – | – | – | – | – | –
Cc1cc(C)cc(Oc2nsnc(Cl)c2=O)c1 [Compound 25, 3-chloro-5-(3,5-dimethylphenoxy)-4H--1,2,6-thiadiazin-4-one] | 79% | 100% | 100% | 100% | 0 (0-10) | 0 (0-10) | 0 (0-10) | 0 (0-10) | – | – | – | – | – | – | – | –
O=c1c(Cl)nsnc1Oc1cccc(Cl)c1 [Compound 13, 3-chloro-5-(3-chlorophenoxy)-4H--1,2,6-thiadiazin-4-one] | 71% | 86% | 76% | 81% | 2 (40-60) | 0 (0-10) | 0 (0-10) | 0 (0-10) | – | – | – | – | – | – | – | –
O=C(O)Cc1ccccc1Oc1nsnc(Cl)c1=O [Compound 45, 3-(2-carboxymethylphenoxy)-5-chloro-4H--1,2,6-thiadiazin-4-one] | 0% | 0% | 63% | 100% | 4 (80-100) | 4 (80-100) | 2 (40-60) | 0 (0-10) | – | – | – | – | – | – | – | –
CSc1ccc(Oc2nsnc(Cl)c2=O)cc1 [Compound 39, 3-chloro-5-[(4-methylthio)phenoxy]-4H-1,2,6,-thiadiazin-4-one] | 73% | 87% | 100% | 80% | 1 (10-40) | 0 (0-10) | 0 (0-10) | 0 (0-10) | – | – | – | – | – | – | – | –
O=c1c(Cl)nsnc1Oc1ccc(F)cc1 [Compound 11, 3-chloro-5-(4-fluorophenoxy)-4H--1,2,6-thiadiazin-4-one] | 62% | 100% | 100% | 100% | 0 (0-10) | 0 (0-10) | 0 (0-10) | 0 (0-10) | – | – | – | – | – | – | – | –
Cc1cc(Oc2nsnc(Cl)c2=O)ccc1Cl [Compound 54, 3-chloro-5-(4-chloro-3-methylphenoxy)-4H--1,2,6-thiadiazin-4-one] | 43% | 91% | 73% | 100% | 2 (40-60) | 0 (0-10) | 0 (0-10) | 0 (0-10) | – | – | – | – | – | – | – | –
3-chloro-5-(bromophenoxy)-4H-1,2,6-thiadiazin-4-one [Compound 33] | – | – | – | – | 0 (0-10) | 0 (0-10) | 0 (0-10) | 0 (0-10) | 83% | 91% | 100% | 100% | – | – | – | –
COc1cc(Oc2nsnc(Cl)c2=O)cc(OC)c1C(C)=O [Compound 61, 3-[(4-acetyl-3,5-dimethoxy)-phenoxy]-5-chloro-4H--1,2,6-thiadiazin-4-one] | 13% | 33% | 100% | 100% | 4 (80-100) | 0 (0-10) | 0 (0-10) | 0 (0-10) | – | – | – | – | – | – | – | –
Cc1ccccc1Oc1nsnc(Cl)c1=O [Compound 22, 3-chloro-5-(2-methylphenoxy)-4H--1,2,6-thiadiazin-4-one] | 100% | 100% | 100% | 100% | 0 (0-10) | 0 (0-10) | 0 (0-10) | 0 (0-10) | – | – | – | – | – | – | – | –
O=c1c(Cl)nsnc1Oc1cc(Cl)cc(Cl)c1 [Compound 20, 3-chloro-5-(3,5-dichlorophenoxy)-4H--1,2,6-thiadiazin-4-one] | 100% | 100% | 100% | 100% | 0 (0-10) | 0 (0-10) | 0 (0-10) | 0 (0-10) | – | – | – | – | – | – | – | –
O=c1c(Cl)nsnc1Oc1ccccc1Cl [Compound 14, 3-chloro-5-(2-chlorophenoxy)-4H--1,2,6-thiadiazin-4-one] | 71% | 71% | 100% | 100% | 4 (80-100) | 0 (0-10) | 0 (0-10) | 0 (0-10) | – | – | – | – | – | – | – | –
Nc1ccc(Oc2nsnc(Cl)c2=O)cc1 [Compound 27, 5-(4-aminophenoxy)-3-chloro-4H--1,2,6-thiadiazine-4-one hydrochloride] | – | – | – | – | – | – | – | – | – | – | – | – | 0% | 21% | 43% | 57%
O=c1c(Cl)nsnc1Oc1ccccc1 [Compound 2, 3-chloro-5-phenoxy-4H--1,2,6-thiadiazin-4-one] | 55% | 64% | 100% | 100% | 4 (80-100) | 4 (80-100) | 0 (0-10) | 0 (0-10) | – | – | – | – | – | – | – | –
Cc1cc(Cl)c(Oc2nsnc(Cl)c2=O)cc1C [Compound 58, 3-chloro-5-[(2-chloro-4,5-dimethyl)phenoxy]-4H--1,2,6-thiadiazin-4-one] | 54% | 54% | 69% | 69% | 3 (60-80) | 0 (0-10) | 0 (0-10) | 0 (0-10) | – | – | – | – | – | – | – | –
CC(=O)Nc1cccc(Oc2nsnc(Cl)c2=O)c1 [Compound 42, 3-[(3-N--acetylamino)-phenoxy]-5-chloro-4H--1,2,6-thiadiazin-4-one] | 23% | 38% | 100% | 100% | 4 (80-100) | 4 (80-100) | 3 (60-80) | 0 (0-10) | – | – | – | – | – | – | – | –
O=c1c(Cl)nsnc1Oc1ccccc1Br [Compound 34, 3-chloro-5-(2-bromophenoxy)-4H-1,2,6,-thiadiazin-4-one] | 74% | 74% | 100% | 100% | 1 (10-40) | 0 (0-10) | 0 (0-10) | 0 (0-10) | – | – | – | – | – | – | – | –
C[S+]([O-])c1ccc(Oc2nsnc(Cl)c2=O)cc1 (stereo not drawn) [Compound 40, 3-chloro-5-[(4-methylsulfinyl)phenoxy]-4H-1,2,6,-thiadiazin-4-one] | 40% | 60% | 87% | 100% | 4 (80-100) | 0 (0-10) | 0 (0-10) | 0 (0-10) | – | – | – | – | – | – | – | –
